From paper PMC12255297 (Nucleic Acids Research, 2025) come the findings set out here.

In experiment [1] the target is T1, C. botulinum SAM-AMP lyase (Clostridium botulinum, UniProt A5I3U9).
T1 construct: gene CBO2178

Experiment [2] deals with T1, C. botulinum SAM-AMP lyase. The source holds these as a separate data set.

T1 sequence (A5I3U9 1-124 limits assumed): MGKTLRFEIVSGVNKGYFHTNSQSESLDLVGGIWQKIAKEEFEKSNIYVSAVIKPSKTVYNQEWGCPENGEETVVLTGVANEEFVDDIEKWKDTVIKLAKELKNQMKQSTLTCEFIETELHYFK

With `CSC[C@H]1O[C@@H](n2cnc3c(N)ncnc32)[C@H](O)[C@@H]1OP(=O)(O)OC[C@H]1O[C@@H](n2cnc3c(N)ncnc32)[C@H](O)[C@@H]1O` [MTA-AMP], the “electrophoretic mobility shift assay, native gel” value in experiment [1] is listed as “SAM-AMP lyase binds its product MTA-AMP, but not SAH-AMP or SFG-AMP”.

Take `C[S+](CC[C@H](N)C(=O)O)C[C@H]1O[C@@H](n2cnc3c(N)ncnc32)[C@H](O)[C@@H]1OP(=O)(O)OC[C@H]1O[C@@H](n2cnc3c(N)ncnc32)[C@H](O)[C@@H]1O` (some centres unmarked) [SAM-AMP]: the “HPLC and LC-MS of cleavage to MTA-AMP and homoserine lactone” value in experiment [2] is “HPLC analysis and mass spectrometry confirmed that SAM-AMP was degraded, generating the previously observed MTA-AMP product”.
